Data published in US7592188B2, “Live cell biosensors” (The Scripps Research Institute, priority 2004, dated 2009).
Each block holds one molecule with its values, some of them ahead of it.

Tests used:
[1] = Dye photo-bleaching under tungsten lamp irradiation; format: physicochemical
Procedure: Photo-bleaching. All samples contained 1 mM dye in a final volume of 10 mL. For nitrogen and oxygen saturation the samples were bubbled with solvent-saturated gas for 30 min. A 90 W halogen tungsten lamp was employed for irradiation, with a fan used for cooling. The temperature of samples was 25±1° C. during reactions. The absorption spectrum of each sample was measured before irradiation and after every 10 h period. For the trapping experiment thioanisole (1.0 M) was added to oxygen-saturated butanol solution of dye 1b. After 60 h of irradiation the reaction mixture was analyzed by GC-MS for products formed. The products, methylphenylsulfoxide and methylphenyl sulfone, were identified by comparison with authentic samples.
Dyes used in living cells must be photostable to provide many sequential images and to obtain sufficient light from minimal amounts of exogenous labeled material. The photostability of the new dyes was characterized by exposing them to constant illumination from a tungsten lamp filtered through glass, a broad spectrum light source that provided essentially equal intensity throughout the spectral range where the dyes would be irradiated in vivo. A fan was used to prevent heating, and dye solutions were adjusted for equal maximal absorbance, kept below 1 μM to minimize the inner filter effect. […] Photo-bleaching followed first-order kinetics in all cases.

[2] = Photophysical properties of dyes in various solvents (absorbance, emission, quantum yield); format: physicochemical; set-up: ε × F / ε × Φ: unit not given here
Procedure: Analytical grade reagents were purchased from major suppliers. […] Emission and excitation spectra were obtained using a Spex Fluorolog 2 spectrofluorometer at 23° C. […] Demas et al., J. Phys. […] All operations with dyes were performed under dim light. Flasks containing dyes were wrapped with aluminum foil.

Absolute rate constant of dye photo-bleaching, kph × 10^6 ([1]; BuOH): 5.2 s^−1
Absolute rate constant of dye photo-bleaching, kph × 10^6 ([1]; MeOH): 3.0 s^−1
Abs. λmax ([2]; solvent BuOH): 604 nm
Emission λmax ([2]; solvent BuOH): 622 nm
Φ (quantum yield of fluorescence) ([2]; solvent BuOH): 0.12
ε (molar extinction coefficient) ([2]; solvent BuOH): (163000)
ε × F ([2]; solvent BuOH): 20000
Abs. λmax ([2]; solvent C6H6): 591 nm
Emission λmax ([2]; solvent C6H6): 617 nm
Φ (quantum yield of fluorescence) ([2]; solvent C6H6): 0.16
ε (molar extinction coefficient) ([2]; solvent C6H6): (152000)
ε × F ([2]; solvent C6H6): 24000
Abs. λmax ([2]; solvent DMF): 602 nm
Emission λmax ([2]; solvent DMF): 619 nm
Φ (quantum yield of fluorescence) ([2]; solvent DMF): 0.22
ε (molar extinction coefficient) ([2]; solvent DMF): (173000)
ε × F ([2]; solvent DMF): 38000
Abs. λmax ([2]; solvent MeOH): 598 nm
Emission λmax ([2]; solvent MeOH): 617 nm
Φ (quantum yield of fluorescence) ([2]; solvent MeOH): 0.05
ε (molar extinction coefficient) ([2]; solvent MeOH): (143000)
ε × F ([2]; solvent MeOH): 7000
Abs. λmax ([2]; solvent OcOH): 606 nm
Emission λmax ([2]; solvent OcOH): 623 nm
Φ (quantum yield of fluorescence) ([2]; solvent OcOH): 0.17
ε (molar extinction coefficient) ([2]; solvent OcOH): (168000)
ε × F ([2]; solvent OcOH): 29000
Molecule: CCN1\C(=C/C=C/C=C2/C(=O)c3ccccc3S2(=O)=O)Sc2ccccc21 [dye 2a, (2Z)-2-[(2E,4E)-4-(3-Ethyl-1,3-benzothiazol-2(3H)-ylidene)but-2-enylidene]-1-benzothiophen-3(2H)-one 1,1-Dioxide]

Molecule: O=C(CI)Nc1ccc2c(c1)S/C(=C/C=C/C=C1/C(=O)c3ccccc3S1(=O)=O)N2CCCS(=O)(=O)[O-].[Na+] [dye 2e, Sodium 3-[(2E)-6-[(Iodoacetyl)amino]-2-[(2E,4Z)-4-(1,1-dioxido-3-oxo-1-benzothien-2(3H)-ylidene)but-2-enylidene]-1,3-benzothiazol-3(2H)-yl]propane-1-sulfonate]
Emission λmax ([2]; reactive forms, solvent BuOH): 636 nm
absorption λmax ([2]; reactive forms, solvent BuOH): 618 nm
Φ (quantum yield of fluorescence) ([2]; reactive forms, solvent BuOH): 0.06
ε (molar extinction coefficient) ([2]; reactive forms, solvent BuOH): (160000)
ε × Φ ([2]; reactive forms, solvent BuOH): 9600
Emission λmax ([2]; reactive forms, solvent H2O): 618 nm
Emission λmax ([2]; reactive forms, solvent MeOH): 628 nm
absorption λmax ([2]; reactive forms, solvent MeOH): 610 nm
Φ (quantum yield of fluorescence) ([2]; reactive forms, solvent MeOH): 0.034
ε (molar extinction coefficient) ([2]; reactive forms, solvent MeOH): (140000)
ε × Φ ([2]; reactive forms, solvent MeOH): 3000

Emission λmax ([2]; reactive forms, solvent MeOH): 629 nm
absorption λmax ([2]; reactive forms, solvent MeOH): 610 nm
Φ (quantum yield of fluorescence) ([2]; reactive forms, solvent MeOH): 0.054
ε (molar extinction coefficient) ([2]; reactive forms, solvent MeOH): (138000)
ε × Φ ([2]; reactive forms, solvent MeOH): 8000
Molecule: O=C(CSCCO)Nc1ccc2c(c1)S\C(=C/C=C/C=C1/C(=O)c3ccccc3S1(=O)=O)N2CCCS(=O)(=O)[O-].[Na+] [dye 2g, Sodium 3-[(2Z)-6-({[(2-Hydroxyethyl)thio]acetyl}amino)-2-[(2E,4Z)-4-(1,1-dioxido-3-oxo-1-benzothien-2(3H)-ylidene)but-2-enylidene]-1,3-benzothiazol-3(2H)-yl]propane-1-sulfonate]
quantum yield after reaction with β-mercaptoethanol relative to underivatized fluorophore [2]: returned the quantum yield of S—SO to that of the underivatized fluorophore

Emission λmax ([2]; reactive forms, solvent BuOH): 639 nm
absorption λmax ([2]; reactive forms, solvent BuOH): 607 nm
Φ (quantum yield of fluorescence) ([2]; reactive forms, solvent BuOH): 0.06
ε (molar extinction coefficient) ([2]; reactive forms, solvent BuOH): (150000)
ε × Φ ([2]; reactive forms, solvent BuOH): 9000
Emission λmax ([2]; reactive forms, solvent H2O): 630 nm
absorption λmax ([2]; reactive forms, solvent H2O): 599 nm
Φ (quantum yield of fluorescence) ([2]; reactive forms, solvent H2O): 0.004
ε (molar extinction coefficient) ([2]; reactive forms, solvent H2O): (143000)
ε × Φ ([2]; reactive forms, solvent H2O): 600
Emission λmax ([2]; reactive forms, solvent MeOH): 634 nm
absorption λmax ([2]; reactive forms, solvent MeOH): 601 nm
Φ (quantum yield of fluorescence) ([2]; reactive forms, solvent MeOH): 0.01
ε (molar extinction coefficient) ([2]; reactive forms, solvent MeOH): (138000)
ε × Φ ([2]; reactive forms, solvent MeOH): 1400
Molecule: CC1(C)/C(=C/C=C/C=C2/C(=O)c3ccccc3S2(=O)=O)N(CCCS(=O)(=O)[O-])c2ccc(NC(=O)CI)cc21.[Na+] [dye 4e, Sodium 3-{(2Z)-5-[(Iodoacetyl)amino]-2-[(2E,4Z)-4-(1,1-dioxido-3-oxo-1-benzothien-2(3H)-ylidene)but-2-enylidene]-3,3-dimethyl-2,3-dihydro-1H-indol-1-yl}propane-1-sulfonate]

Emission λmax ([2]; reactive forms, solvent BuOH): 623 nm
absorption λmax ([2]; reactive forms, solvent BuOH): 590 nm
Φ (quantum yield of fluorescence) ([2]; reactive forms, solvent BuOH): 0.19
ε (molar extinction coefficient) ([2]; reactive forms, solvent BuOH): (134000)
ε × Φ ([2]; reactive forms, solvent BuOH): 26000
Emission λmax ([2]; reactive forms, solvent H2O): 616 nm
absorption λmax ([2]; reactive forms, solvent H2O): 594 nm
Φ (quantum yield of fluorescence) ([2]; reactive forms, solvent H2O): 0.01
ε (molar extinction coefficient) ([2]; reactive forms, solvent H2O): (150000)
ε × Φ ([2]; reactive forms, solvent H2O): 1500
Emission λmax ([2]; reactive forms, solvent MeOH): 620 nm
absorption λmax ([2]; reactive forms, solvent MeOH): 586 nm
Φ (quantum yield of fluorescence) ([2]; reactive forms, solvent MeOH): 0.05
ε (molar extinction coefficient) ([2]; reactive forms, solvent MeOH): (140000)
ε × Φ ([2]; reactive forms, solvent MeOH): 7000
Molecule: CN(C(=O)COCC(=O)ON1C(=O)CCC1=O)c1ccc2c(c1)C(C)(C)/C(=C/C=C/C=C1/C(=O)c3ccccc3S1(=O)=O)N2CCCS(=O)(=O)[O-].[Na+] [dye 4f, Sodium 3-{(2Z)-5-[({2-[(2,5-Dioxopyrrolidin-1-yl)oxy]-2-oxoethoxy}acetyl)methylamino]-2-[(2E,4Z)-4-(1,1-dioxido-3-oxo-1-benzothien-2(3H)-ylidene)but-2-enylidene]-3,3-dimethyl-2,3-dihydro-1H-indol-1-yl}propane-1-sulfonate]

quantum yield after reaction with β-mercaptoethanol relative to underivatized fluorophore [2]: half that of the unaltered fluorophore
Emission λmax ([2]; reactive forms, solvent BuOH): 628 nm
absorption λmax ([2]; reactive forms, solvent BuOH): 609 nm
Φ (quantum yield of fluorescence) ([2]; reactive forms, solvent BuOH): 0.12
ε (molar extinction coefficient) ([2]; reactive forms, solvent BuOH): (142000)
ε × Φ ([2]; reactive forms, solvent BuOH): 17000
Emission λmax ([2]; reactive forms, solvent H2O): 620 nm
absorption λmax ([2]; reactive forms, solvent H2O): 600 nm
Φ (quantum yield of fluorescence) ([2]; reactive forms, solvent H2O): 0.02
ε (molar extinction coefficient) ([2]; reactive forms, solvent H2O): (140000)
ε × Φ ([2]; reactive forms, solvent H2O): 3000
Emission λmax ([2]; reactive forms, solvent MeOH): 621 nm
absorption λmax ([2]; reactive forms, solvent MeOH): 601 nm
Φ (quantum yield of fluorescence) ([2]; reactive forms, solvent MeOH): 0.04
ε (molar extinction coefficient) ([2]; reactive forms, solvent MeOH): (140000)
ε × Φ ([2]; reactive forms, solvent MeOH): 6000
Molecule: CC1(C)\C(=C/C=C/C=C2/C(=O)c3ccccc3S2(=O)=O)N(CCCS(=O)(=O)[O-])c2ccc(NC(=O)CSCCO)cc21.[Na+] [dye 4g, Sodium 3-{(2E)-5-({[(2-Hydroxyethyl)thio]acetyl}amino)-2-[(2E,4Z)-4-(1,1-dioxido-3-oxo-1-benzothien-2(3H)-ylidene)but-2-enylidene]-3,3-dimethyl-2,3-dihydro-2,3-dihydro-1H-indol-1-yl}propane-1-sulfonate]

Emission λmax ([2]; reactive forms, solvent BuOH): 626 nm
absorption λmax ([2]; reactive forms, solvent BuOH): 608 nm
Φ (quantum yield of fluorescence) ([2]; reactive forms, solvent BuOH): 0.12
ε (molar extinction coefficient) ([2]; reactive forms, solvent BuOH): (134000)
Emission λmax ([2]; reactive forms, solvent H2O): 618 nm
Emission λmax ([2]; reactive forms, solvent MeOH): 621 nm
absorption λmax ([2]; reactive forms, solvent MeOH): 603 nm
Φ (quantum yield of fluorescence) ([2]; reactive forms, solvent MeOH): 0.06
ε (molar extinction coefficient) ([2]; reactive forms, solvent MeOH): (142000)
Molecule: Sodium 3-[(2E)-6-[({2-[(2,5-Dioxopyrrolidin-1-yl)oxy]-2-oxoethoxy}-acetyl)methylaminol]-2-[(2E,4Z)-4-(1,1-dioxido-3-oxo-1-benzothien-2(3H)-ylidene)but-2-enylidene]-1,3-benzothiazol-3(2H)-yl]propane-1-sulfonate [dye 2f]
